{
  "source": "patent US10640457B2",
  "about": "“Histone acetyltransferase activators and uses thereof” (The Trustees of Columbia University in the City of New York, priority 2009, dated 2020)",
  "key": {"Aβ42-infused mice [1]": {"tested_on": "Aβ42-infused mice", "test": "Two day radial arm water maze in Aβ-infused mice (YF2)", "format": "in vivo", "description": "The task is a hybrid of the Morris Water Maze (MWM) and the radial arm land maze. This task is altered in Aβ-infused mice. The motivation for the animals is the immersion in water. The mouse needed to swim in 6 alleys (arms) radiating from a central area until it found a hidden (submerged) platform at the end of one of the arms, based on visual cues placed in the room. […] The first day of the protocol was a training day. Mice were trained to identify the platform location by alternating between a visible and a hidden platform in a goal arm. The final 3 trials on day 1 and all 15 trials on day 2 used a hidden escape platform to force mice to use spatial cues to identify the location of the goal arm.\nTo avoid learning limitations imposed by exhausting practice and to avoid fatigue that may result from consecutive trials, spaced practice training were established by running the mice in cohorts of 4 and alternating different cohorts through the 15 training trials over 3 hours testing periods each day. […] The number of incorrect arm entries (entries in arms with no platform) was counted. […] Failure to select an arm after 15 sec were counted as an error and the mouse was returned to the start arm. […]\nNext, mice from the first cohort completed trials 7-12 again using the alternating visible-hidden platform location. […] For data analysis, averages for each mouse were calculated using blocks of 3 trials. […]"}, "Aβ42-infused mice [2]": {"tested_on": "Aβ42-infused mice", "test": "Contextual and cued fear conditioning in Aβ-infused mice (YF2)", "format": "in vivo", "method": "Contextual and cued fear conditioning was performed to assess whether the compound is capable of ameliorating amyloid-beta (Aβ) induced memory defect. Aβ is a peptide which is elevated in Alzheimer's disease. The hippocampus plays a key role in contextual memory and in Alzheimer's Disease. This type of cognitive test is much faster than other behavioral tasks that require multiple days of training and testing [Q1, Q2]; each herein incorporated by reference in its entirety. The conditioning chamber was in a sound-attenuating box. A clear Plexiglas window allowed the experimenter to film the mouse performance with a camera placed on a tripod and connected to the Freezeframe software (MED Ass. Inc.). To provide background white noise (72 dB), a single computer fan was installed in one of the sides of the sound-attenuating chamber. […] The floor was removable, and after each experimental subject, we cleaned it with 75% ethanol and then with water. Only one animal at a time was present in the experimentation room.\nFor the cued and contextual conditioning experiments, mice were placed in the conditioning chamber for 2 min before the onset of a discrete tone (CS) (a sound that lasted 30 sec at 2800 Hz and 85 dB). In the last 2 sec of the CS, mice were given a foot shock (US) of 0.8 mA for 2 sec through the bars of the floor. […] Freezing behavior, defined as the absence of all movement except for that necessitated by breathing, was scored using the Freezeview software.\nTo evaluate contextual fear learning, freezing was measured for 5 min (consecutively) in the chamber in which the mice was trained 24 hr after training. To evaluate cued fear learning, following contextual testing, the mice were placed in a novel context (triangular cage with smooth flat floor) for 2 min (pre-CS test), after which they were exposed to the CS for 3 min (CS test), and freezing was measured. Sensory perception of the shock was determined through threshold assessment. […] Initially, a […] shock was delivered for 1 sec, and the animal behavior was evaluated for flinching, jumping, and vocalization. […]"}},
  "note": "Entries after “also recorded” stand apart in the source; their conditions may differ.",
  "data": [
    {"compound": "CCOc1cccc(OCCN(C)C)c1C(=O)Nc1ccc(Cl)c(C(F)(F)F)c1", "note": "[YF2]", "values": [
      {"measurement": "RAWM performance, compound by itself", "setting": "Aβ42-infused mice [1]; 5 mg/kg i.p., no Aβ", "result": "did not affect"},
      {"measurement": "Aβ-induced reference memory impairment (RAWM errors)", "setting": "Aβ42-infused mice [1]; Aβ42-infused mice, i.p. 5 mg/kg 30 min prior to 1st and 7th trial, 5 mg/kg", "result": "ameliorated; also recorded: rescued"},
      {"measurement": "contextual memory, compound alone", "setting": "Aβ42-infused mice [2]; 20 mg/kg i.p., no Aβ", "result": "did not affect"},
      {"measurement": "contextual fear memory deficit (freezing time)", "setting": "Aβ42-infused mice [2]; Aβ42-infused mice, i.p. 20 mg/kg 2 hrs or 5 mg/kg 30 min before the electric shock", "result": "ameliorated; also recorded: dramatically increasing"},
      {"measurement": "cued memory", "setting": "Aβ42-infused mice [2]; different groups (vehicle, YF2, Aβ, YF2 plus Aβ)", "result": "not changed"}
    ]}
  ]
}
